Each block holds one compound with its values, some of them ahead of it.
Key:
Type in all cases: biochemical
[1] = target: T1, recombinant human PDE2A4 (Homo sapiens, UniProt O00408, P38L/T213A/V664A); experiment: Inhibition of recombinant human PDE2A4 enzyme activity (QM7 lysate); conditions: QM7 lysate containing recombinant human PDE2A4
T1 construct: made in house; host or cells: QM-7 cells (quail myoblast line), transient transfection, crude cell lysate
Experimental: FIG. 3. EHNA inhibition of hsPDE2A4 activity. QM7 lysate containing recombinant human PDE2A4 was used in inhibition assay with increased concentration of inhibitors (EHNA and Rolipram; 10^−9-10^−[…]). The data and graph were analyzed and generated using Prism software.
(§1) To express in active form, human PDE2A4 cDNA was cloned downstream of the CMV promoter into pcDNA3.1/V5-His-TOPO vector, and the plasmid was transiently transfected into QM-7 cells by lipofectamine-plus reagent (Invitrogen). Forty-eight hours after the transfection, the QM-7 cells were lysed in buffer containing 50 mM Tris/HCl, 10 mM NaCl, 5 mM EGTA, 1 mM EDTA, 1 mM DTT and proteinase inhibitor cocktail (Roche). The cell lysate was used as a source for recombinant hsPDE2A4 enzyme.
(§2) The enzyme activity assay was performed according to Thompson et al, Ann N Y Acad Sci, 185:36-41 (1971) and Alvarez et al, Anal Biochem, 203:76-82 (1992) in the presence of 50 mM Tris/HCl, pH 8.0, 5 mM MgCl2, 4 mM 2-mercaptoethanol and 0.3 mg/ml BSA. […] The experiments were performed in duplicates for each substrate concentration. The Km and Vmax were calculated with Michaelis-Menten equation on Prism software.

[2] = target: T1, recombinant human PDE2A4; experiment: Enzyme activity assay, Km and Vmax of human PDE2A4 for cAMP and cGMP
Experimental: as §1, §2

[3] = target: T1, recombinant human PDE2A4; experiment: cGMP stimulation of hsPDE2A4 cAMP-hydrolyzing activity; conditions: 10 μM cGMP; cAMP substrate 30 μM ([3H]-cAMP/cAMP)
Experimental: FIG. 4. cGMP stimulation of hsPDE2A4 activity. QM7 lysate containing recombinant human PDE2A4 was used in stimulation assay. […] The enzyme activities in the absence or presence of 10 μM cGMP were compared. Data analysis was performed using Prism software.
as §1, §2
The enzymatic activity of recombinant human PDE2A4 can be stimulated by cGMP, a unique characteristic for PDE2 gene family (FIG. 4).

[4] = substrate of human PDE2A4, QM-7 cell lysate, Michaelis-Menten, Prism

T1 sequence (O00408 1-932 isoform O00408-4 P29L/T204A/V655A): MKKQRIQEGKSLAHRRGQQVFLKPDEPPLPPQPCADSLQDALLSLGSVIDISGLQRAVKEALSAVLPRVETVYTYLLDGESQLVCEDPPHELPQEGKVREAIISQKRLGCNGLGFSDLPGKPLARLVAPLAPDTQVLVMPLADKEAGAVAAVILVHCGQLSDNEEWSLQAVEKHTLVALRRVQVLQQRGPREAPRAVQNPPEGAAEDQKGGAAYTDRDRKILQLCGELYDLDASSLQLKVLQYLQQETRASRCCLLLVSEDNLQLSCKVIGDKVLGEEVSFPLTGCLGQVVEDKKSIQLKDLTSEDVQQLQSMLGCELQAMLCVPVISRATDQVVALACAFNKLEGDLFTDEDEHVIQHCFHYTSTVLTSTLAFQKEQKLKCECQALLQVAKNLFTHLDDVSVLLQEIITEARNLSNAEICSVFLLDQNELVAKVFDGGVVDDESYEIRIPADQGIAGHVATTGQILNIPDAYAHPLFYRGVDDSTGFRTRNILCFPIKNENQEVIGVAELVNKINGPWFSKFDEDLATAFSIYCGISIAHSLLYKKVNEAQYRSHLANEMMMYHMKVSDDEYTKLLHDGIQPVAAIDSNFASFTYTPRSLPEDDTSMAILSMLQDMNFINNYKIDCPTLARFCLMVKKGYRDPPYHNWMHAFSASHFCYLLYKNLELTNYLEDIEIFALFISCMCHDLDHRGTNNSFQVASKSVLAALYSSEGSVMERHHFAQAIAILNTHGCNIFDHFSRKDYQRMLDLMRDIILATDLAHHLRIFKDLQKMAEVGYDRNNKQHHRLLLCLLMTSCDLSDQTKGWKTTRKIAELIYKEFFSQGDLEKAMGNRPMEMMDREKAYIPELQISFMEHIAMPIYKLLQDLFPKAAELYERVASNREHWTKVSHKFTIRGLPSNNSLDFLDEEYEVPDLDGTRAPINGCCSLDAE

IC50 ([1]; inhibitors 10^−9-10^−4 μM, read-out: IC50, inhibition of enzymatic activity of recombinant human PDE2A4): 1.1 µM
SMILES: CCCCCCC(C(C)O)n1cnc2c(N)ncnc21 (stereo not drawn) [EHNA, erythro-9-(2-hydroxy-3-nonyl)adenine]

inhibitory effect on human PDE2A4 enzyme activity ([1]; inhibitors 10^−9-10^−4 μM (FIG. 3)): no inhibitory effect
SMILES: COc1ccc(C2CNC(=O)C2)cc1OC1CCCC1 (stereo not drawn) [Rolipram]

affinity of human PDE2A4 for cGMP relative to cAMP ([2]; cGMP versus cAMP): ~2 fold | Km [2, 4]: 17.5 µM | Vmax [2, 4]: Vmax = 334.4 ± 16.0 pmol/mg/min | stimulation of activity for hydrolyzing cAMP [3]: elevated more than three-fold
SMILES: Nc1nc2c(ncn2[C@@H]2O[C@@H]3COP(=O)(O)O[C@H]3[C@H]2O)c(=O)[nH]1 [cGMP, cyclic guanosine 5′ monophosphate]

From US20060168668A1, “Phosphodiesterase 2a and methods of use” (Memory Pharmaceuticals Corporation, priority 2003, published 2006)
